Test results: patent publication US12187688B2, “Crystal form of tetramethylpyrazine nitrone, preparation method and use thereof” (GUANGZHOU MAGPIE PHARMACEUTICALS CO., LTD., priority 2019, dated 2025)
“And” between values parts separate entries of the source, which are not always exact repeats. Identical values can stand only once. Like-named read-outs stand apart in the source and are kept apart here. Each block holds one molecule with its values, some of them ahead of it.

Assays:
[1] = pharmacokinetic study in the cerebrospinal fluid of cynomolgus monkey; type: in vivo
Protocol: The pharmacodynamic study in cynomolgus monkey animal model of cerebral stroke and also the pharmacokinetic study of the crystal form A of TBN in the cerebrospinal fluid of cynomolgus monkey were carried out. 10 min, 30 min, 60 min, and 120 min after the second administration (30 mg/kg, 6 hrs after the first intravenous administration of 30 mg/kg), 0.5 ml of cerebrospinal fluid was collected for pharmacokinetic test.

[2] = distribution in tissues after intravenous administration to SD rats; type: in vivo; details: 30 mg/kg i.v.
Protocol: SD rats were given the crystal form A of TBN at a dose of 30 mg/kg by intravenous injection and the distribution of the crystal form A of TBN in various tissues was investigated.

[3] = pharmacokinetic study in the cerebrospinal fluid of cynomolgus monkey; type: in vivo; details: plasma, iv, 30 mg/kg, 10 min after the second administration, 30 mg/kg i.v., read-out: concentration of the drug in plasma
[4] = in vitro cell experiments (effective protection concentration); type: cell-based
Solubility in solvents = type: physicochemical
[5] = Test of influence of acceleration; type: physicochemical
Tableting test = type: physicochemical; details: 2 tons for 2 min
Protocol: (3) The crystal form A and the TBN dihydrate were tableted under a pressure of 2 tons for 2 min. The tablets thus obtained were analyzed by XRPD.

[6] = Test of stability against mechanical treatment (grinding); type: physicochemical; details: ground for 10 min
Protocol: (2) The crystal form A of TBN and the TBN dihydrate were ground for 10 min receptively, and the treated samples were analyzed by XRPD.

[7] = Test of stability against cold/heat treatment; type: physicochemical
Protocol: (4) The crystal form A was cooled to −55° C., and then heated to 25° C.
(5) The crystal form A was heated to 110° C. (before the decomposition point), and then cooled to 25° C. to obtain a yellow oily liquid.
(6) The TBN dihydrate was heated to 110° C. (before the decomposition point), and then cooled to 25° C. to obtain a yellow oily liquid.

[8] = Polymorph transformation test of suspension; type: physicochemical; details: petroleum ether, room temperature, 7 days
Protocol: (1) The crystal form A of TBN was beaten in petroleum ether (1.0 mL) at room temperature for 7 days, and then the suspension was centrifuged, and the solid sample was collected for characterization by XRPD.

Drug concentration in cerebrospinal fluid ([1]; 10 min after second intravenous 30 mg/kg dose, individual animals, 30 mg/kg): 33700 ng/mL and 34300 ng/mL
Drug concentration in cerebrospinal fluid ([1]; 30 min after second intravenous 30 mg/kg dose, individual animals, 30 mg/kg): 32200 ng/mL and 25100 ng/mL
Drug concentration in cerebrospinal fluid ([1]; 60 min after second intravenous 30 mg/kg dose, individual animals, 30 mg/kg): 25300 ng/mL and 20000 ng/mL
concentration at 10 min ([1]; cerebrospinal fluid, iv, 30 mg/kg, 10 min after second intravenous 30 mg/kg dose, individual animals, read-out: Drug concentration in cerebrospinal fluid): 48800 ng/mL
concentration at 10 min ([1]; cerebrospinal fluid, iv, 30 mg/kg, 10 min after the second administration, 30 mg/kg i.v., read-out: concentration of TBN in the cerebrospinal fluid): 176 µM
concentration at 30 min ([1]; cerebrospinal fluid, iv, 30 mg/kg, 30 min after second intravenous 30 mg/kg dose, individual animals, read-out: Drug concentration in cerebrospinal fluid): 41100 ng/mL
concentration at 60 min ([1]; cerebrospinal fluid, iv, 30 mg/kg, 60 min after second intravenous 30 mg/kg dose, individual animals, read-out: Drug concentration in cerebrospinal fluid): 27500 ng/mL
accumulation in the detected tissues [2]: does not tend to accumulate
time to clearance from the tissues and plasma [2]: ≤ 24 h
concentration in the brain tissue relative to plasma concentration ([2]; 0.25 hrs after administration): 0.6-0.7 time the plasma concentration
concentration in the brain tissue relative to plasma concentration ([2]; after 4 hrs): 0.8-1.1 times the plasma concentration
clearance from brain tissue ([2]; at 24 hrs): completely cleared
tissue distribution ([2]; female and male): rapid and widespread distribution
concentration at 10 min [3]: 195 µM
Compound: Cc1nc(C)c(/C=[N+](\[O-])C(C)(C)C)nc1C [TBN, (Z)-2-methyl-N-((3,5,6-trimethylpyrazin-2-yl)methylene)propan-2-amine oxide]
Drug concentration in cerebrospinal fluid ([1]; 120 min after second intravenous 30 mg/kg dose, individual animals, 30 mg/kg): 16500 ng/mL and 14300 ng/mL and 7800 ng/mL
effective protection concentration [4]: 30 µM

solubility (Solubility in solvents; most solvents (acetonitrile, methanol, ethanol, acetone, ethyl acetate)): readily soluble
solubility (Solubility in solvents; water): very soluble
crystal form by XRPD after acceleration ([5]; 7 days at 40° C. and RH=75%): shows crystal form A
stability in heat treatment, mechanical treatment and acceleration ([5]; acceleration (50° C., 75% RH)): stable
polymorph transformation after tableting (XRPD) (Tableting test): do not undergo polymorph transformation
crystal form (XRPD) after grinding [6]: no change
crystal form by XRPD after thermal treatment ([7]; heated to 110° C., cooled to 25° C., solid precipitated after stirring): characterized by XRPD as crystal form A
crystal form by XRPD after suspension beating [8]: still crystal form A
Compound: Cc1nc(C)c(/C=[N+](\[O-])C(C)(C)C)nc1C [crystal form A of TBN, (Z)-2-methyl-N-((3,5,6-trimethylpyrazin-2-yl)methylene)propan-2-amine oxide]
blood-brain barrier penetration ([1]; 30 mg/kg i.v.): penetrate through the blood-brain barrier
polymorph transformation after cooling treatment ([7]; cooled to −55° C., then heated to 25° C.): does not undergo polymorph transformation
